Experimental data taken from PMC4904262 (ACS Medicinal Chemistry Letters, 2016).

Legend:
ABL = ABL (Homo sapiens, UniProt P00519); conditions: 1 µM, ATP at Km
CDK3/CYCLINE = CDK3/CYCLINE (Homo sapiens, UniProt Q00526); conditions: 1 µM, ATP at Km
CDK9/CYCLINT1 = CDK9/CYCLINT1 (Homo sapiens, UniProt P50750); conditions: 1 µM, ATP at Km
LOK = LOK (Homo sapiens, UniProt O94804); conditions: 1 µM, ATP at Km
MAPKAP-K2 = MAPKAP-K2 (Homo sapiens, UniProt P49137); conditions: 1 µM, ATP at Km
MAPKAP-K3 = MAPKAP-K3 (Homo sapiens, UniProt Q16644); conditions: 1 µM, ATP at Km
Chain of MAPKAP-K3 (Q16644 whole entry): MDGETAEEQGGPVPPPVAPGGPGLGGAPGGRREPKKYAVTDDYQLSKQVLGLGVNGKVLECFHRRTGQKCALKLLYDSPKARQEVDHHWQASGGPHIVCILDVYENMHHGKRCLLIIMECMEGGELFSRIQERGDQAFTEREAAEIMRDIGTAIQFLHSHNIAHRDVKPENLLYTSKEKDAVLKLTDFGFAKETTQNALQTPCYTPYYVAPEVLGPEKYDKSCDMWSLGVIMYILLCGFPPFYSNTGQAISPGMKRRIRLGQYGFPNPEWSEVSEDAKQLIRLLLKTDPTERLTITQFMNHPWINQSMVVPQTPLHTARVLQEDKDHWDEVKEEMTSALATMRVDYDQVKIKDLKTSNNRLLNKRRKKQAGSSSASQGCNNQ

NEK6 = NEK6 (Homo sapiens, UniProt Q9HC98); conditions: 1 µM, ATP at Km
Chain of NEK6 (Q9HC98 whole entry): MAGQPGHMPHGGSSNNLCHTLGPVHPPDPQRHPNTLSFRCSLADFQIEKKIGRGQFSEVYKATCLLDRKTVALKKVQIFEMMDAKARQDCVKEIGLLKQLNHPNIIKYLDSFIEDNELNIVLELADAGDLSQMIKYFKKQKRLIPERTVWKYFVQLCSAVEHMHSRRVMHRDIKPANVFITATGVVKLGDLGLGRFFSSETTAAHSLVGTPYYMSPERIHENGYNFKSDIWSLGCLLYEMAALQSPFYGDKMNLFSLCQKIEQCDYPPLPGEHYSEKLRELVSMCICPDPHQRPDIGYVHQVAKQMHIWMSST

P70S6K = P70S6K (Homo sapiens, UniProt P23443); conditions: 1 µM, ATP at Km
PKBGAMMA = PKBGAMMA (Homo sapiens, UniProt Q9Y243); conditions: 1 µM, ATP at Km
Chain of PKBGAMMA (Q9Y243 whole entry): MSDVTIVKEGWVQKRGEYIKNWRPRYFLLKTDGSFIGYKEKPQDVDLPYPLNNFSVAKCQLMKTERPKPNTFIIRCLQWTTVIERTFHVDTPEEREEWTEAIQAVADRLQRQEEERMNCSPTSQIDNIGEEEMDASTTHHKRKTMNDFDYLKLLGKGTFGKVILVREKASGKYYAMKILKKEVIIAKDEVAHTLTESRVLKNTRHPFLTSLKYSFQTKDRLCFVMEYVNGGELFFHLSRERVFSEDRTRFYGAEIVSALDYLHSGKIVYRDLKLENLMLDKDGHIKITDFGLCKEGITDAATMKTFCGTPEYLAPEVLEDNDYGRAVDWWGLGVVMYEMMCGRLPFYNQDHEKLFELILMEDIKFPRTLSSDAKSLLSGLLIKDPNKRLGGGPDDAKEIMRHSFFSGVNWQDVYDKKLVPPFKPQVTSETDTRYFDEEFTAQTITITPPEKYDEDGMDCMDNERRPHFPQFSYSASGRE

RSK2 = RSK2 (Homo sapiens, UniProt P51812); conditions: 1 µM, ATP at Km
SAPK2A = SAPK2A (Homo sapiens, UniProt Q16539); conditions: 1 µM, ATP at Km
Chain of SAPK2A (Q16539 whole entry): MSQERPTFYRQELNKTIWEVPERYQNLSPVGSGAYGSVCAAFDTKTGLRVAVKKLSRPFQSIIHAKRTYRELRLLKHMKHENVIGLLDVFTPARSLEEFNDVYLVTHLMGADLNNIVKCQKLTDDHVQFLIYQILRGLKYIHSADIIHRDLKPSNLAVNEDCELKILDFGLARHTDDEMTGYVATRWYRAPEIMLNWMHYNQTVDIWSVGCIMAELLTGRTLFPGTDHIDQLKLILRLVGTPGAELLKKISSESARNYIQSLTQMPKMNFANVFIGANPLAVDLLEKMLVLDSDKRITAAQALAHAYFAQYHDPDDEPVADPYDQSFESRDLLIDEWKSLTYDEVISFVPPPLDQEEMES

TIE2 = TIE2 (Homo sapiens, UniProt Q02763); conditions: 1 µM, ATP at Km
Chain of TIE2 (Q02763 23-1124): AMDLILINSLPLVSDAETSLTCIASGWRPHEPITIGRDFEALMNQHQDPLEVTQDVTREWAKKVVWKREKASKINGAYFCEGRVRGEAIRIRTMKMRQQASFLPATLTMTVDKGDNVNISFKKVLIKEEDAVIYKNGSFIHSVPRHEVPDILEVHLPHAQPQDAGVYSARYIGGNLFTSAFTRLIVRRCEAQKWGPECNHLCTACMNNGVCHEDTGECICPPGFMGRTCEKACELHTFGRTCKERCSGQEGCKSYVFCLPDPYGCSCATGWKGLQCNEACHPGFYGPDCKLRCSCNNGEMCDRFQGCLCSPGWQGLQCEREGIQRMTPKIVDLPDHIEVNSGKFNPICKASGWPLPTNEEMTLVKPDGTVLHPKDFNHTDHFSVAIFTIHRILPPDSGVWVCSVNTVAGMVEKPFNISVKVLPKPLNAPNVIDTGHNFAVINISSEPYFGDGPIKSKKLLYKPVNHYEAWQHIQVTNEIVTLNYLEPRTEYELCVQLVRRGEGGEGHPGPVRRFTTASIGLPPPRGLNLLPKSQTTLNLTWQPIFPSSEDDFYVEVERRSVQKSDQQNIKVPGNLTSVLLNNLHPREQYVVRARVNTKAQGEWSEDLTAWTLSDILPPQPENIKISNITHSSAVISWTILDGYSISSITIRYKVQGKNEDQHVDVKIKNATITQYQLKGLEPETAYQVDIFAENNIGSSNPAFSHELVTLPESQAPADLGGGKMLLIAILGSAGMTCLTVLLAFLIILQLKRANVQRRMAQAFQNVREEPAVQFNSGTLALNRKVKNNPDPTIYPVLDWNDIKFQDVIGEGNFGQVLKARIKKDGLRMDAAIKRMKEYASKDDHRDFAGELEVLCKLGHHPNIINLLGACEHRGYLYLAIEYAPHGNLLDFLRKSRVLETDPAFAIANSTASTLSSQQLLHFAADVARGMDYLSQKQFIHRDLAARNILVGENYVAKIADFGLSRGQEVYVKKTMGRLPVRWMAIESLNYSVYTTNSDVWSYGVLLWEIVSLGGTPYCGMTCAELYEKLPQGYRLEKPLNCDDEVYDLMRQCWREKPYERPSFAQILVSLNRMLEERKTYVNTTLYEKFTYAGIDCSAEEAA

GRK6 = GRK6 (Homo sapiens, UniProt P43250); conditions: 1 µM, ATP at Km
Chain of GRK6 (P43250 whole entry): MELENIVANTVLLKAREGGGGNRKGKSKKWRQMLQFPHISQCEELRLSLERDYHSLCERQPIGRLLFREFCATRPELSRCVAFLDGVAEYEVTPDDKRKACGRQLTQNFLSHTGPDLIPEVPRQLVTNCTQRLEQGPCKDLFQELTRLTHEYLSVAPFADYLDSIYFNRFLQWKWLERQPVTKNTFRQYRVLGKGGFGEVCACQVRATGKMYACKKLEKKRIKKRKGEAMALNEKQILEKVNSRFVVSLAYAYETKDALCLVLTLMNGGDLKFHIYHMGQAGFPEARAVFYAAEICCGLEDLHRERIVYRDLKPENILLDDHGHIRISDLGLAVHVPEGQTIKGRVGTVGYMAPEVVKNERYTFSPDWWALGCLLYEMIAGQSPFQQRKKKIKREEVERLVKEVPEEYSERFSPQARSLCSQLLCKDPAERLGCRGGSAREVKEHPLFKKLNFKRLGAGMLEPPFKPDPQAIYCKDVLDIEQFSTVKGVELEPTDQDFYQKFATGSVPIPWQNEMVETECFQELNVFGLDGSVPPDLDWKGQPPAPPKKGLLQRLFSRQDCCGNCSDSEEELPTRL

[1] = rat, in vivo, 0.2 mg/kg
phospho-STAT1^SER727 = conditions: single 5 mg/kg po dose; SW620 xenograft
in vitro [2] = conditions: mouse, microsomes
in vitro [3] = conditions: rat, microsomes
in vitro [4] = conditions: human, microsomes
in vitro [5] = conditions: mouse, plasma
[6] = target: CDK8 in the presence of cyclin C (Homo sapiens, UniProt P49336); assay: biochemical; conditions: read-out: CDK8 residence time ± SD
EGFR(L861Q) = EGFR(L861Q) (Homo sapiens, UniProt P00533, L861Q); conditions: 1 µM, ATP at Km
FLT3(D835Y) = FLT3(D835Y) (Homo sapiens, UniProt P36888, D835Y); conditions: 1 µM, ATP at Km
MKK4 = MKK4 (Mus musculus, UniProt P47809); conditions: 1 µM, ATP at Km
SAPK2A(T106M) = SAPK2A(T106M) (Homo sapiens, UniProt Q16539, T106M); conditions: 1 µM, ATP at Km
CKIT(D816H) = CKIT(D816H) (Homo sapiens, UniProt P10721, D816H); conditions: 1 µM, ATP at Km
CKIT(V560G) = CKIT(V560G) (Homo sapiens, UniProt P10721, V560G); conditions: 1 µM, ATP at Km
FGFR1(V561M) = FGFR1(V561M) (Homo sapiens, UniProt P11362, V561M); conditions: 1 µM, ATP at Km
[…](V561D) = […](V561D) (Homo sapiens, UniProt P16234, V561D); conditions: 1 µM, ATP at Km
ABL (Q252H) = ABL (Q252H) (Homo sapiens, UniProt P00519, Q252H); conditions: 1 µM, ATP at Km
ABL(Y253F) = ABL(Y253F) (Homo sapiens, UniProt P00519, Y253F); conditions: 1 µM, ATP at Km
BTK(R28H) = BTK(R28H) (Homo sapiens, UniProt Q06187, R28H); conditions: 1 µM, ATP at Km
RET (V804L) = RET (V804L) (Homo sapiens, UniProt P07949, V804L); conditions: 1 µM, ATP at Km
TIE2(R849W) = TIE2(R849W) (Homo sapiens, UniProt Q02763, R849W); conditions: 1 µM, ATP at Km
Chain of TIE2(R849W) (Q02763 23-1124 R849W): as the sequence (Q02763 23-1124) above, with R827W counted along it

TIE2(Y897S) = TIE2(Y897S) (Homo sapiens, UniProt Q02763, Y897S); conditions: 1 µM, ATP at Km
Chain of TIE2(Y897S) (Q02763 23-1124 Y897S): as the sequence (Q02763 23-1124) above, with Y875S counted along it

PI3 KINASE (E542K/P85A) = PI3 KINASE (E542K/P85A) (Homo sapiens, UniProt P42336, E542K); conditions: PI3 KINASE (E542K/P85A) (first listing); 1 µM; ATP at Km
PI3 KINASE (H1047R/P85A) = PI3 KINASE (H1047R/P85A) (Homo sapiens, UniProt P42336, H1047R); conditions: 1 µM, ATP at Km
PI3 KINASE (P65A) = conditions: 1 µM, ATP at Km
cMET (D1246H) = cMET (D1246H) (Homo sapiens, UniProt P08581, D1228H); conditions: 1 µM, ATP at Km
cMET (M1268T) = cMET (M1268T) (Homo sapiens, UniProt P08581, M1250T); conditions: 1 µM, ATP at Km
cMET (Y1248H) = cMET (Y1248H) (Homo sapiens, UniProt P08581, Y1230H); conditions: 1 µM, ATP at Km
FMS(Y969C) = FMS(Y969C) (Homo sapiens, UniProt P07333, Y969C); conditions: 1 µM, ATP at Km

Chain of CDK3/CYCLINE (P24864 whole entry): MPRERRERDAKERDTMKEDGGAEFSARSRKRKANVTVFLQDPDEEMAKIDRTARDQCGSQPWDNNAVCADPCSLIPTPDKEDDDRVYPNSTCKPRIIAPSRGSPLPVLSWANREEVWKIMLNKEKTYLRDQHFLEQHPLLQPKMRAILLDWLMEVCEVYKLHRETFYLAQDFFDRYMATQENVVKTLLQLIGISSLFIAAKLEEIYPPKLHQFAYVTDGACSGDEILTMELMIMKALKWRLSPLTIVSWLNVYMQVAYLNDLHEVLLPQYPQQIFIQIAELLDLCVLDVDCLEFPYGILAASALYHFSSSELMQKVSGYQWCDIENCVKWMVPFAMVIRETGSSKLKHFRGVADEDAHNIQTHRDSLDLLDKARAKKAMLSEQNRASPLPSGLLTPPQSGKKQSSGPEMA
Chain of CDK3/CYCLINE (Q00526 whole entry): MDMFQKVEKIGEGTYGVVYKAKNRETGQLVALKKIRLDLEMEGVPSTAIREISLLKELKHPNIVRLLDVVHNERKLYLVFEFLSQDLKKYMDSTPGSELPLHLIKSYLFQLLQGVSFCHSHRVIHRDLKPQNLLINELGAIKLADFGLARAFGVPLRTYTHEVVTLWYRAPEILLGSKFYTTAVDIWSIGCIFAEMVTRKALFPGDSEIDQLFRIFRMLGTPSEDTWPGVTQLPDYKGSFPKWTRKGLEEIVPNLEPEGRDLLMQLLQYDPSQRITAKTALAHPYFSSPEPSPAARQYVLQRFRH
Chain of LOK (O94804 whole entry): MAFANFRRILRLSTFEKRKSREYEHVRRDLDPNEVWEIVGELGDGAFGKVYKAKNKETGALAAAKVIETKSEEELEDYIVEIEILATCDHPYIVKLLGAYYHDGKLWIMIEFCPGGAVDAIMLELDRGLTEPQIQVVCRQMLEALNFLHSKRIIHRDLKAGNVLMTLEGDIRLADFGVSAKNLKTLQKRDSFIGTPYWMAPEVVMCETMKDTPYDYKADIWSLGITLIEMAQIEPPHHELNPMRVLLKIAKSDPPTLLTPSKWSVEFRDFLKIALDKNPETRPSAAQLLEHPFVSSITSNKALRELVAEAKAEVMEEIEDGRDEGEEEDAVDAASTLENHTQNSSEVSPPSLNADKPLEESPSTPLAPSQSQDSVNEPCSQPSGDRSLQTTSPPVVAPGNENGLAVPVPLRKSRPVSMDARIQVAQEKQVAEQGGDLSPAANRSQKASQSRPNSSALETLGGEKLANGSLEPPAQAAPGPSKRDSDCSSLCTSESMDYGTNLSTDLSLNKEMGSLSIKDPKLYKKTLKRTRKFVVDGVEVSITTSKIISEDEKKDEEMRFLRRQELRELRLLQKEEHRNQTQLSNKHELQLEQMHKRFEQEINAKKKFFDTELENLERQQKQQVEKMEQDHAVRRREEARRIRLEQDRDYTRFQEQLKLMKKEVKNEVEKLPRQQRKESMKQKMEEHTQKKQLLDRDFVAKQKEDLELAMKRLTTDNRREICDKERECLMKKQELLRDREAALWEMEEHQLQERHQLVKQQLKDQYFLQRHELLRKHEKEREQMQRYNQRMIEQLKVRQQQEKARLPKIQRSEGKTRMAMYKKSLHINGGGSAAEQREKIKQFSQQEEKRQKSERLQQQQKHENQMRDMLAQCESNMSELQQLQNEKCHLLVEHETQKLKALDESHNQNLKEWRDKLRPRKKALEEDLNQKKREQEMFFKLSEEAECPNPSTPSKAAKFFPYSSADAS

Structure (SMILES): COC1CN(C(=O)c2ccc3c(N)ncc(-c4ccc(-c5cnn(C)c5)cc4)c3n2)C1 [Compound 51]
- percentage effect (ABL): 20%
- percentage effect (CDK3/CYCLINE): 4%
- percentage effect (CDK9/CYCLINT1): 8%
- percentage effect (LOK): 3%
- percentage effect (MAPKAP-K2): 6%
- percentage effect (MAPKAP-K3): -15%
- percentage effect (NEK6): -2%
- percentage effect (P70S6K): -25%
- percentage effect (PKBGAMMA): -4%
- percentage effect (RSK2): 6%
- percentage effect (SAPK2A): -4%
- percentage effect (TIE2): -6%
- percentage effect (GRK6): 4%
- % in feces (iv dosing) [1]: 36%
- inhibition of phospho-STAT1^SER727 in tumor xenograft (phospho-STAT1^SER727): time-dependent inhibition of phospho-STAT1^SER727
- microsomal CLint at 1 µM (in vitro [2]): 52 µL/min/mg
- microsomal CLint at 1 µM (in vitro [3]): 26 µL/min/mg
- microsomal CLint at 1 µM (in vitro [4]): 61 µL/min/mg
- fraction unbound (in vitro [5]): 0.038
- residence time [6]: 15 ± 2 min

Structure (SMILES): COC1CN(C(=O)c2ccc3c(N)ncc(-c4ccc(-c5cnn(C)c5)cc4)c3c2)C1 [Compound 59]
- percentage effect (ABL): -10%
- percentage effect (CDK3/CYCLINE): -5%
- percentage effect (EGFR(L861Q)): -9%
- percentage effect (FLT3(D835Y)): -10%
- percentage effect (LOK): 1%
- percentage effect (MKK4): 3%
- percentage effect (NEK6): -34%
- percentage effect (PKBGAMMA): -6%
- percentage effect (RSK2): 0%
- percentage effect (SAPK2A): -9%
- percentage effect (SAPK2A(T106M)): 1%
- percentage effect (TIE2): -18%
- percentage effect (GRK6): 8%
- percentage effect (CKIT(D816H)): -1%
- percentage effect (CKIT(V560G)): -21%
- percentage effect (FGFR1(V561M)): -6%
- percentage effect ([…](V561D)): -9%
- percentage effect (ABL (Q252H)): 9%
- percentage effect (ABL(Y253F)): -6%
- percentage effect (BTK(R28H)): -12%
- percentage effect (RET (V804L)): -9%
- percentage effect (TIE2(R849W)): -12%
- percentage effect (TIE2(Y897S)): -6%
- percentage effect (PI3 KINASE (E542K/P85A)): -3%
- percentage effect (PI3 KINASE (H1047R/P85A)): -2%
- percentage effect (PI3 KINASE (P65A)): -4%
- percentage effect (cMET (D1246H)): 1%
- percentage effect (cMET (M1268T)): 5%
- percentage effect (cMET (Y1248H)): 6%
- percentage effect (FMS(Y969C)): -31%
